In patent EP0356894A1, “A novel glycopeptide antibiotic Decaplanin, a process for its production and its use as medicament” (priority 1988, dated 1990):

Tests used:
[1] = acute toxicity, subcutaneous injection; type: in vivo; conditions: 1000 mg/kg and 2000 mg/kg, injected subcutaneously, Swiss mice
Text: The acute toxicity of the compound in laboratory animals has been evaluated.

[2] = system: Staphylococcus aureus E 710 (Methicillin resistant); assay: in vivo antibacterial protection study in experimentally infected mice; conditions: laboratory mice experimentally infected with Staphylococcus aureus E 710 (Methicillin resistant)
Text: "In vivo" antibacterial protection studies

Gram-positive bacteria = assay: minimum inhibitory concentration (MIC) determination; type: cell-based; conditions: wide range of Gram-positive bacteria including enterococci and resistant clinical isolates; MIC values are in Table II (image)
[3] = acute toxicity, intravenous injection, mice; type: in vivo; conditions: Swiss white mice
[4] = acute toxicity, intravenous injection, rats; type: in vivo; conditions: Wistar rats
[5] = i.v., end of the 14 day follow-up period

Molecule	finding at the site of injection [1]	activity in the in vivo system [2]	activity against Gram-positive bacteria (Gram-positive bacteria)	macroscopic examination on dissection [3, 5]	LD₅₀ ([3]; intravenous injection (i.v.), 20160 min)	acute toxicity [1]	macroscopic examination on dissection [4, 5]	LD₅₀ ([4]; intravenous injection (i.v.))
CN[C@H](CC(C)C)C(=O)N[C@H]1C(=O)N[C@@H](CC(N)=O)C(=O)N[C@H]2C(=O)N[C@H]3C(=O)N[C@H](C(=O)N[C@H](C(=O)O)c4cc(O)cc(O)c4-c4cc3ccc4O)[C@H](O)c3ccc(c(Cl)c3)Oc3cc2cc(c3O[C@@H]2O[C@H](CO)[C@@H](O)[C@H](O)[C@H]2O[C@H]2C[C@](C)(N)[C@H](O)[C@H](C)O2)Oc2ccc(cc2Cl)[C@H]1O [vancomycin, reference compound]	tissue necrosis was seen at the site of injection							
Decaplanin	no abnormalities were observed	good activity	displays activity	no morphological changes	greater than 3000 mg/kg	no acute toxicity was observed	no morphological changes	greater than 2,500 mg/kg
